Test results: the supplement of paper PMC6045584
± gives the standard deviation of the averaged measurements.

Columns and labels:
CANERTINIB = compound: C=CC(=O)Nc1cc2c(Nc3ccc(F)c(Cl)c3)ncnc2cc1OCCCN1CCOCC1 [CANERTINIB]; experiment: surviving fraction relative to DMSO-only wells; higher = less growth inhibition; conditions: exposure time: 5 days
Method in brief: (§1)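 Log-phase tumour cell lines were seeded at 250–500 cells per well in 384-well plates. After 24 hours they were exposed continuously for five days to inhibitors at 0.5, 1, 5, 10, 50, 100, 500 and 1000 nM. Viability was read by CellTiter-Glo luminescence after 10 minutes at room temperature, and surviving fraction is luminescence normalised to the median of DMSO-only wells. Each line was screened three times and kept only if replicate Pearson r >0.7 and median Z' >0.3.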

BI-2536 = compound: CC[C@@H]1C(=O)N(C)c2cnc(Nc3ccc(C(=O)NC4CCN(C)CC4)cc3OC)nc2N1C1CCCC1 [BI-2536]; experiment: as above; conditions: exposure time: 5 days
Method in brief: as §1

SCC003 HEADNECK
surviving fraction (CANERTINIB; 0.5 nM): 0.691 ± 0.065 | surviving fraction (CANERTINIB; 1 nM): 0.867 ± 0.032 | surviving fraction (CANERTINIB; 5 nM): 0.897 ± 0.054 | surviving fraction (CANERTINIB; 10 nM): 0.775 ± 0.014 | surviving fraction (CANERTINIB; 50 nM): 0.899 ± 0.075 | surviving fraction (CANERTINIB; 100 nM): 0.8 ± 0.075 | surviving fraction (CANERTINIB; 500 nM): 0.718 ± 0.036 | surviving fraction (CANERTINIB; 1000 nM): 0.434 ± 0.061 | surviving fraction (BI-2536; 0.5 nM): 1.06 ± 0.12 | surviving fraction (BI-2536; 1 nM): 0.93 ± 0.027 | surviving fraction (BI-2536; 5 nM): 0.467 ± 0.059 | surviving fraction (BI-2536; 10 nM): 0.412 ± 0.066 | surviving fraction (BI-2536; 50 nM): 0.596 ± 0.074 | surviving fraction (BI-2536; 100 nM): 0.582 ± 0.033 | surviving fraction (BI-2536; 500 nM): 0.381 ± 0.019 | surviving fraction (BI-2536; 1000 nM): 0.275 ± 0.028

PCI30 HEADNECK
surviving fraction (CANERTINIB; 0.5 nM): 0.962 ± 0.047 | surviving fraction (CANERTINIB; 1 nM): 0.879 ± 0.058 | surviving fraction (CANERTINIB; 5 nM): 0.866 ± 0.042 | surviving fraction (CANERTINIB; 10 nM): 0.641 ± 0.032 | surviving fraction (CANERTINIB; 50 nM): 0.485 ± 0.03 | surviving fraction (CANERTINIB; 100 nM): 0.47 ± 0.017 | surviving fraction (CANERTINIB; 500 nM): 0.323 ± 0.034 | surviving fraction (CANERTINIB; 1000 nM): 0.228 ± 0.028 | surviving fraction (BI-2536; 0.5 nM): 0.988 ± 0.027 | surviving fraction (BI-2536; 1 nM): 0.689 ± 0.054 | surviving fraction (BI-2536; 5 nM): 0.128 ± 0.015 | surviving fraction (BI-2536; 10 nM): 0.149 ± 0.01 | surviving fraction (BI-2536; 50 nM): 0.286 ± 0.029 | surviving fraction (BI-2536; 100 nM): 0.337 ± 0.02 | surviving fraction (BI-2536; 500 nM): 0.357 ± 0.0049 | surviving fraction (BI-2536; 1000 nM): 0.255 ± 0.011

HSSYII SYNOVIAL
surviving fraction (CANERTINIB; 0.5 nM): 0.809 ± 0.039 | surviving fraction (CANERTINIB; 1 nM): 0.794 ± 0.015 | surviving fraction (CANERTINIB; 5 nM): 0.814 ± 0.053 | surviving fraction (CANERTINIB; 10 nM): 0.855 ± 0.037 | surviving fraction (CANERTINIB; 50 nM): 0.889 ± 0.033 | surviving fraction (CANERTINIB; 100 nM): 0.868 ± 0.011 | surviving fraction (CANERTINIB; 500 nM): 0.724 ± 0.031 | surviving fraction (CANERTINIB; 1000 nM): 0.631 ± 0.021 | surviving fraction (BI-2536; 0.5 nM): 0.998 ± 0.053 | surviving fraction (BI-2536; 1 nM): 0.944 ± 0.04 | surviving fraction (BI-2536; 5 nM): 0.102 ± 0.023 | surviving fraction (BI-2536; 10 nM): 0.0418 ± 0.0018 | surviving fraction (BI-2536; 50 nM): 0.045 ± 0.0054 | surviving fraction (BI-2536; 100 nM): 0.0367 ± 0.001 | surviving fraction (BI-2536; 500 nM): 0.0423 ± 0.0025 | surviving fraction (BI-2536; 1000 nM): 0.0472 ± 0.00058

HCC70 BREAST
surviving fraction (CANERTINIB; 0.5 nM): 0.991 ± 0.14 | surviving fraction (CANERTINIB; 1 nM): 1.088 ± 0.0046 | surviving fraction (CANERTINIB; 5 nM): 1.02 ± 0.078 | surviving fraction (CANERTINIB; 10 nM): 0.96 ± 0.019 | surviving fraction (CANERTINIB; 50 nM): 0.911 ± 0.047 | surviving fraction (CANERTINIB; 100 nM): 0.893 ± 0.017 | surviving fraction (CANERTINIB; 500 nM): 0.707 ± 0.0092 | surviving fraction (CANERTINIB; 1000 nM): 0.666 ± 0.068 | surviving fraction (BI-2536; 0.5 nM): 1.08 ± 0.026 | surviving fraction (BI-2536; 1 nM): 0.933 ± 0.12 | surviving fraction (BI-2536; 5 nM): 0.57 ± 0.047 | surviving fraction (BI-2536; 10 nM): 0.35 ± 0.053 | surviving fraction (BI-2536; 50 nM): 0.623 ± 0.041 | surviving fraction (BI-2536; 100 nM): 0.795 ± 0.043 | surviving fraction (BI-2536; 500 nM): 0.593 ± 0.042 | surviving fraction (BI-2536; 1000 nM): 0.391 ± 0.045

VCAP PROSTATE
surviving fraction (CANERTINIB; 0.5 nM): 0.902 ± 0.036 | surviving fraction (CANERTINIB; 1 nM): 0.904 ± 0.026 | surviving fraction (CANERTINIB; 5 nM): 0.954 ± 0.046 | surviving fraction (CANERTINIB; 10 nM): 0.935 ± 0.12 | surviving fraction (CANERTINIB; 50 nM): 1.19 ± 0.083 | surviving fraction (CANERTINIB; 100 nM): 1.17 ± 0.1 | surviving fraction (CANERTINIB; 500 nM): 0.859 ± 0.09 | surviving fraction (CANERTINIB; 1000 nM): 0.737 ± 0.037 | surviving fraction (BI-2536; 0.5 nM): 0.925 ± 0.13 | surviving fraction (BI-2536; 1 nM): 0.243 ± 0.0099 | surviving fraction (BI-2536; 5 nM): 0.0727 ± 0.012 | surviving fraction (BI-2536; 10 nM): 0.0763 ± 0.015 | surviving fraction (BI-2536; 50 nM): 0.154 ± 0.031 | surviving fraction (BI-2536; 100 nM): 0.228 ± 0.031 | surviving fraction (BI-2536; 500 nM): 0.07 ± 0.0027 | surviving fraction (BI-2536; 1000 nM): 0.0443 ± 0.013

ZR751 BREAST
surviving fraction (CANERTINIB; 0.5 nM): 0.993 ± 0.042 | surviving fraction (CANERTINIB; 1 nM): 0.957 ± 0.044 | surviving fraction (CANERTINIB; 5 nM): 0.948 ± 0.052 | surviving fraction (CANERTINIB; 10 nM): 0.957 ± 0.093 | surviving fraction (CANERTINIB; 50 nM): 0.802 ± 0.026 | surviving fraction (CANERTINIB; 100 nM): 0.77 ± 0.062 | surviving fraction (CANERTINIB; 500 nM): 0.648 ± 0.052 | surviving fraction (CANERTINIB; 1000 nM): 0.618 ± 0.029 | surviving fraction (BI-2536; 0.5 nM): 1.22 ± 0.024 | surviving fraction (BI-2536; 1 nM): 1.27 ± 0.16 | surviving fraction (BI-2536; 5 nM): 0.902 ± 0.075 | surviving fraction (BI-2536; 10 nM): 0.655 ± 0.0093 | surviving fraction (BI-2536; 50 nM): 0.72 ± 0.13 | surviving fraction (BI-2536; 100 nM): 0.865 ± 0.094 | surviving fraction (BI-2536; 500 nM): 0.645 ± 0.039 | surviving fraction (BI-2536; 1000 nM): 0.434 ± 0.061

SIHA CERVIX
surviving fraction (CANERTINIB; 0.5 nM): 0.897 ± 0.035 | surviving fraction (CANERTINIB; 1 nM): 0.809 ± 0.04 | surviving fraction (CANERTINIB; 5 nM): 0.978 ± 0.023 | surviving fraction (CANERTINIB; 10 nM): 0.867 ± 0.049 | surviving fraction (CANERTINIB; 50 nM): 0.951 ± 0.14 | surviving fraction (CANERTINIB; 100 nM): 0.977 ± 0.055 | surviving fraction (CANERTINIB; 500 nM): 0.871 ± 0.027 | surviving fraction (CANERTINIB; 1000 nM): 0.727 ± 0.027 | surviving fraction (BI-2536; 0.5 nM): 1.11 ± 0.027 | surviving fraction (BI-2536; 1 nM): 1.04 ± 0.065 | surviving fraction (BI-2536; 5 nM): 0.351 ± 0.025 | surviving fraction (BI-2536; 10 nM): 0.263 ± 0.031 | surviving fraction (BI-2536; 50 nM): 0.262 ± 0.016 | surviving fraction (BI-2536; 100 nM): 0.301 ± 0.0078 | surviving fraction (BI-2536; 500 nM): 0.214 ± 0.014 | surviving fraction (BI-2536; 1000 nM): 0.147 ± 0.015

CHLA90 AUTONOMIC GANGLIA
surviving fraction (CANERTINIB; 0.5 nM): 0.869 ± 0.021 | surviving fraction (CANERTINIB; 1 nM): 0.876 ± 0.083 | surviving fraction (CANERTINIB; 5 nM): 0.744 ± 0.072 | surviving fraction (CANERTINIB; 10 nM): 0.704 ± 0.03 | surviving fraction (CANERTINIB; 50 nM): 0.812 ± 0.08 | surviving fraction (CANERTINIB; 100 nM): 0.761 ± 0.057 | surviving fraction (CANERTINIB; 500 nM): 0.684 ± 0.045 | surviving fraction (CANERTINIB; 1000 nM): 0.643 ± 0.062 | surviving fraction (BI-2536; 0.5 nM): 1.07 ± 0.045 | surviving fraction (BI-2536; 1 nM): 0.978 ± 0.062 | surviving fraction (BI-2536; 5 nM): 0.408 ± 0.032 | surviving fraction (BI-2536; 10 nM): 0.203 ± 0.01 | surviving fraction (BI-2536; 50 nM): 0.167 ± 0.027 | surviving fraction (BI-2536; 100 nM): 0.135 ± 0.015 | surviving fraction (BI-2536; 500 nM): 0.132 ± 0.0078 | surviving fraction (BI-2536; 1000 nM): 0.0863 ± 0.0025

NCIH441 LUNG
surviving fraction (CANERTINIB; 0.5 nM): 0.951 ± 0.059 | surviving fraction (CANERTINIB; 1 nM): 1.02 ± 0.02 | surviving fraction (CANERTINIB; 5 nM): 1.01 ± 0.029 | surviving fraction (CANERTINIB; 10 nM): 1.03 ± 0.07 | surviving fraction (CANERTINIB; 50 nM): 0.918 ± 0.1 | surviving fraction (CANERTINIB; 100 nM): 0.923 ± 0.0095 | surviving fraction (CANERTINIB; 500 nM): 0.736 ± 0.098 | surviving fraction (CANERTINIB; 1000 nM): 0.635 ± 0.086 | surviving fraction (BI-2536; 0.5 nM): 1.03 ± 0.16 | surviving fraction (BI-2536; 1 nM): 0.859 ± 0.11 | surviving fraction (BI-2536; 5 nM): 0.571 ± 0.057 | surviving fraction (BI-2536; 10 nM): 0.499 ± 0.041 | surviving fraction (BI-2536; 50 nM): 0.502 ± 0.03 | surviving fraction (BI-2536; 100 nM): 0.507 ± 0.022 | surviving fraction (BI-2536; 500 nM): 0.36 ± 0.028 | surviving fraction (BI-2536; 1000 nM): 0.228 ± 0.01

MCF7 BREAST
surviving fraction (CANERTINIB; 0.5 nM): 0.838 ± 0.027 | surviving fraction (CANERTINIB; 1 nM): 0.831 ± 0.023 | surviving fraction (CANERTINIB; 5 nM): 0.818 ± 0.02 | surviving fraction (CANERTINIB; 10 nM): 0.79 ± 0.018 | surviving fraction (CANERTINIB; 50 nM): 0.888 ± 0.02 | surviving fraction (CANERTINIB; 100 nM): 0.859 ± 0.039 | surviving fraction (CANERTINIB; 500 nM): 0.854 ± 0.082 | surviving fraction (CANERTINIB; 1000 nM): 0.808 ± 0.026 | surviving fraction (BI-2536; 0.5 nM): 0.911 ± 0.071 | surviving fraction (BI-2536; 1 nM): 0.913 ± 0.07 | surviving fraction (BI-2536; 5 nM): 0.797 ± 0.074 | surviving fraction (BI-2536; 10 nM): 0.445 ± 0.018 | surviving fraction (BI-2536; 50 nM): 0.408 ± 0.021 | surviving fraction (BI-2536; 100 nM): 0.38 ± 0.022 | surviving fraction (BI-2536; 500 nM): 0.394 ± 0.01 | surviving fraction (BI-2536; 1000 nM): 0.319 ± 0.0042
